In the Kinase Knowledgebase extract (Sharma et al. 2016):

What was measured:
Experiment in all cases: Enzyme Assay
PIK3CA (human) = PIK3CA (human) (UniProt P42336)
PIK3CB (Human) = PIK3CB (Human) (UniProt P42338)
PIK3CG (human) = PIK3CG (human) (UniProt P48736)
PIK3CD (Human) = PIK3CD (Human) (UniProt O00329)
PIK3CD (Human), sequence (O00329 whole entry, looked up): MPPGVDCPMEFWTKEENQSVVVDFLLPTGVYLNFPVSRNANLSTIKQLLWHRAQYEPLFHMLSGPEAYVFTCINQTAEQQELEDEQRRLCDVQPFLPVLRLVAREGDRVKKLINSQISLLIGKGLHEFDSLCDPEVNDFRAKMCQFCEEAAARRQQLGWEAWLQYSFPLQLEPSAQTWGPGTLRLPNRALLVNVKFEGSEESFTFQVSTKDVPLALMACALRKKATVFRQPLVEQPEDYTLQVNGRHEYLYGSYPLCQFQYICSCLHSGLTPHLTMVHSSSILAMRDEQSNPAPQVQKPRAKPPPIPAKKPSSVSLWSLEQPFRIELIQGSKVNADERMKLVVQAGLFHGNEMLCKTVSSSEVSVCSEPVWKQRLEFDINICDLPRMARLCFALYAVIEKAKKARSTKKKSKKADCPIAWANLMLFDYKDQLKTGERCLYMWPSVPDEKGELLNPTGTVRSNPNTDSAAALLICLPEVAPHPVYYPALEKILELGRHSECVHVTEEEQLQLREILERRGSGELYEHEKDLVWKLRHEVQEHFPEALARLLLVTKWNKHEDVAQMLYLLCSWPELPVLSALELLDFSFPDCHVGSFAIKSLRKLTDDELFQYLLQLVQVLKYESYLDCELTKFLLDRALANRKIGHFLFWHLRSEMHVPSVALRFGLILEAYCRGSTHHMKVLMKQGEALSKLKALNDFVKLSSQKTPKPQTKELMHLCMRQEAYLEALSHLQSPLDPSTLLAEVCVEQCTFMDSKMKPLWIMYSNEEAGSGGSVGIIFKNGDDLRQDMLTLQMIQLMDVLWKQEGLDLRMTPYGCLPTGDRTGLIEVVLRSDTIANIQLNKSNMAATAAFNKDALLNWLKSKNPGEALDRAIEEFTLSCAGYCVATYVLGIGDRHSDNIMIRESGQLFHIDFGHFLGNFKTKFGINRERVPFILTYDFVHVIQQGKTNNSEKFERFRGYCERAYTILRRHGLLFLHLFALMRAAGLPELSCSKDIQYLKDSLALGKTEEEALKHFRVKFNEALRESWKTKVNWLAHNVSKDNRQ

PIK3CA (human), sequence (P42336 whole entry, looked up): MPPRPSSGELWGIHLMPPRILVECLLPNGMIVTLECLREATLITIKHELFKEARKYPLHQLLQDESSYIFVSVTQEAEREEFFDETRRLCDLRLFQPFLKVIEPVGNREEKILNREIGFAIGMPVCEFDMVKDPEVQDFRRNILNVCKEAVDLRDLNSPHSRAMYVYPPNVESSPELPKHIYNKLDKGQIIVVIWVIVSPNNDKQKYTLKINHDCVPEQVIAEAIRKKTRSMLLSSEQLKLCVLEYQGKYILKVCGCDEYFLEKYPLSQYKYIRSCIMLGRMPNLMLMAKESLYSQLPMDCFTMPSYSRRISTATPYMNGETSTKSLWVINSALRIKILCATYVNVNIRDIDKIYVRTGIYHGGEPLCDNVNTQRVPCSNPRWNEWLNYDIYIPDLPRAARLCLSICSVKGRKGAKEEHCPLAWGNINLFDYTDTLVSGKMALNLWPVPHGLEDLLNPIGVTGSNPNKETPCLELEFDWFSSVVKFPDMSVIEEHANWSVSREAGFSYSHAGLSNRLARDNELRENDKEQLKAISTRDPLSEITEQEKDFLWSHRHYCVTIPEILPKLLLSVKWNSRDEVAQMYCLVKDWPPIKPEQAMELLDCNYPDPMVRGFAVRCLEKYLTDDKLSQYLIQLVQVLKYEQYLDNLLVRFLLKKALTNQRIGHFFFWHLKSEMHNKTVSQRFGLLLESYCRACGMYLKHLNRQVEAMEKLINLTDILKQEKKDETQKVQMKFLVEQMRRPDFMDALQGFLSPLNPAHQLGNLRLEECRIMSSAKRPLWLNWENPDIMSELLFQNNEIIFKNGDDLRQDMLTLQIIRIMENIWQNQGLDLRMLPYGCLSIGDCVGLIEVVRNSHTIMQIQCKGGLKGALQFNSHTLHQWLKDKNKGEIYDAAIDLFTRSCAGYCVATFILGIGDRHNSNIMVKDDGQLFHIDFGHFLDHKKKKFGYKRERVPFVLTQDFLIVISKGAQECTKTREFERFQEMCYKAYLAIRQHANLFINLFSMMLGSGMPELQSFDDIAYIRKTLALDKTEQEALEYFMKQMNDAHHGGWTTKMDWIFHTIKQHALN
PIK3CG (human), sequence (P48736 whole entry, looked up): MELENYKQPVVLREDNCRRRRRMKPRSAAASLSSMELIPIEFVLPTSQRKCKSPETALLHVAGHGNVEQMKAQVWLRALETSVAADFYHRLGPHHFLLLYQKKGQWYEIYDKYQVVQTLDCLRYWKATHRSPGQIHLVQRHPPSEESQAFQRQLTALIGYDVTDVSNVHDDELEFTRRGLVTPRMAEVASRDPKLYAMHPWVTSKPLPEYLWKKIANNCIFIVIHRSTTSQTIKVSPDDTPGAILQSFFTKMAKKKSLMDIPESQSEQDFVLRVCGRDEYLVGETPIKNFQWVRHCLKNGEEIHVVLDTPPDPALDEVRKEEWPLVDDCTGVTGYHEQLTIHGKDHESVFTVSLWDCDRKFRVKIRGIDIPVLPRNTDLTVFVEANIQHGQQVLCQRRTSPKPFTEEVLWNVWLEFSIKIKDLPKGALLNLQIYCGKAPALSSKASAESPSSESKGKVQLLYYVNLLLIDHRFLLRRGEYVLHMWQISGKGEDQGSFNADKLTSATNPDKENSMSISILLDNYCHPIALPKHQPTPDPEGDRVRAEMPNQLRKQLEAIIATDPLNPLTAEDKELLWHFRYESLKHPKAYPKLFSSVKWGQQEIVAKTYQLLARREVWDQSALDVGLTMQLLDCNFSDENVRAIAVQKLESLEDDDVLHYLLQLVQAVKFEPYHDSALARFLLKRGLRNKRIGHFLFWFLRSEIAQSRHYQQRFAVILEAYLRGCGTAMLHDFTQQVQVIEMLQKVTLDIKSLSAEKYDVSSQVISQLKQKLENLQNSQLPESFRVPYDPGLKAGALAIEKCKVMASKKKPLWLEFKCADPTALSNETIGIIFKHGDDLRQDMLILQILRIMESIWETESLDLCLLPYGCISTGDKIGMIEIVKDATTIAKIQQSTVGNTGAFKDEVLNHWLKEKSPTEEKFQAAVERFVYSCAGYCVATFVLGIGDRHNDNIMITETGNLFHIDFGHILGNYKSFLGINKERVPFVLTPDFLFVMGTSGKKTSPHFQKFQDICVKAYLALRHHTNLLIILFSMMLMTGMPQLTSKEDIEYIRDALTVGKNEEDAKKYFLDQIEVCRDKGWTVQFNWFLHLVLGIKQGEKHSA
PIK3CB (Human), sequence (P42338 whole entry, looked up): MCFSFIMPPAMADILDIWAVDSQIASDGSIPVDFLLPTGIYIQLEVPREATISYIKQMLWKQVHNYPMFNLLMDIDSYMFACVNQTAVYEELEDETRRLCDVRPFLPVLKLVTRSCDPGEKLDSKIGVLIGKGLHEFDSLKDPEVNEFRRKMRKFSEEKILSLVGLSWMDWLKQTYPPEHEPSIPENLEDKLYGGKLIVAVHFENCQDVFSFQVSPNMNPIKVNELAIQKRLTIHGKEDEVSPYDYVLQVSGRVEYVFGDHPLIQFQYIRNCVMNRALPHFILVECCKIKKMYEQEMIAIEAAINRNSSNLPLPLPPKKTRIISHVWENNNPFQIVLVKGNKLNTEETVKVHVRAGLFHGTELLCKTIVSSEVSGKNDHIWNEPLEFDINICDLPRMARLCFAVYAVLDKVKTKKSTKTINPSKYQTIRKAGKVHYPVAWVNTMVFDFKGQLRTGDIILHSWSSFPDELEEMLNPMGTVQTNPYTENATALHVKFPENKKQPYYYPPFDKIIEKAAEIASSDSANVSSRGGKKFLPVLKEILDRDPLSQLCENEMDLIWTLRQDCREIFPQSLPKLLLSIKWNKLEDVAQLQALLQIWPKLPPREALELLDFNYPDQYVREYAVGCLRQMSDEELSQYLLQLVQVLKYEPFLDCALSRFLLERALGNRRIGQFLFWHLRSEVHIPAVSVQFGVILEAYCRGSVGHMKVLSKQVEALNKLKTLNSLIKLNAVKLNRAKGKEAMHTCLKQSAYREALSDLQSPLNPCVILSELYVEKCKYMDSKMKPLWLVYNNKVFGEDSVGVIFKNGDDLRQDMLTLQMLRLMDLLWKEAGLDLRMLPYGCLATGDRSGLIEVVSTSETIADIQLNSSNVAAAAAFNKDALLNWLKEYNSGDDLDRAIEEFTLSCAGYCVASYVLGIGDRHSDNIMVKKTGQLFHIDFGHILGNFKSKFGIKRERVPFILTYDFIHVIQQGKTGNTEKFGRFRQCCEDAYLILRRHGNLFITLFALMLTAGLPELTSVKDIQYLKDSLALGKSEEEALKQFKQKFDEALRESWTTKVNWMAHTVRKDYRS

Compound | IC50 (PIK3CA (human)) [nM] | IC50 (PIK3CB (Human)) [nM] | IC50 (PIK3CG (human)) [nM] | IC50 (PIK3CD (Human)) [nM]
Cc1cccc2cc([C@H](C)Nc3ncnc4ccccc34)n(-c3ccccc3)c(=O)c12 | > 10000 | > 10000 | 100 to 1000 | < 100
Cc1ccccc1-n1c(Cn2nc(-c3cccc(Cl)c3)c3c(N)ncnc32)cc2cccc(C)c2c1=O | > 10000 | > 10000 | 100 to 1000 | 
Cc1ccccc1-n1c(Cn2nc(-c3cccc(F)c3)c3c(N)ncnc32)cc2cccc(C)c2c1=O | > 10000 | > 10000 | 100 to 1000 | 
Cc1cccc2cc(C(C)Nc3ncnc4[nH]cnc34)n(-c3cccc(F)c3)c(=O)c12 (centres undefined) |  |  | 100 to 1000 | < 100
Cc1cccc2cc(Cn3nc(C#C[C@@H](C)O)c4c(N)ncnc43)n(-c3ccccc3F)c(=O)c12 | > 10000 | > 10000 | 100 to 1000 | 
Cc1cccc2cc([C@H](C)Nc3nc(Cl)nc4[nH]cnc34)n(C3CC3)c(=O)c12 | > 10000 | < 100 | 100 to 1000 | < 100
Cc1ccccc1-n1c(Cn2nc(C#CC3CC3)c3c(N)ncnc32)cc2cccc(C)c2c1=O | > 10000 | > 10000 | 100 to 1000 | 100 to 1000
Cc1cccc2cc(Cn3nc(I)c4c(N)ncnc43)n(-c3ccccc3OCCN3CCOCC3)c(=O)c12 | > 10000 | > 10000 | 100 to 1000 | 
C=C(C)c1nn(Cc2cc3cccc(C)c3c(=O)n2-c2ccccc2)c2ncnc(N)c12 | > 10000 |  | 100 to 1000 | < 100
Cc1cccc2cc([C@H](C)Nc3nc(N)ncc3Cl)n(C3CC3)c(=O)c12 | > 10000 | 100 to 1000 | 100 to 1000 | < 100
Cc1ccccc1-n1c(Cn2nc(C(=O)NO)c3c(N)ncnc32)cc2cccc(C)c2c1=O | > 10000 |  | 100 to 1000 | 100 to 1000
Cc1cccc2cc([C@H](C)Nc3ncnc4[nH]nc(Cl)c34)n(C3CC3)c(=O)c12 | > 10000 | 100 to 1000 | 100 to 1000 | < 100
COc1cccc(-c2nn(Cc3cc4cccc(C)c4c(=O)n3-c3ccccc3C)c3ncnc(N)c23)c1 | > 10000 |  | 100 to 1000 | 100 to 1000
Cc1ccccc1-n1c(Cn2nc(-c3ccc(F)cc3)c3c(N)ncnc32)cc2cccc(C)c2c1=O | > 10000 | > 10000 | 100 to 1000 | 
Cc1cccc2cc(Cn3nc(-c4ccc5nc(N)oc5c4)c4c(N)ncnc43)n(-c3ccccc3)c(=O)c12 |  |  | < 100 | 100 to 1000
Cc1cccc(C)c1-n1c(CNc2ncnc3[nH]cnc23)cc2cccc(C)c2c1=O | > 10000 | > 10000 | 100 to 1000 | < 100
Cc1cccc2cc(Cn3nc(-c4cnn(CCO)c4)c4c(N)ncnc43)n(-c3ccccc3F)c(=O)c12 | > 10000 | > 10000 | 100 to 1000 | 
Cc1cccc2cc(Cn3nc(-c4ccc(F)c(O)c4)c4c(N)ncnc43)n(-c3ccccc3F)c(=O)c12 | > 10000 | > 10000 | 100 to 1000 | 

Compound | IC50 (PIK3CA (human)) [nM] | IC50 (PIK3CB (Human)) [nM] | IC50 (PIK3CG (human)) [nM] | IC50 (PIK3CD (Human)) [nM]
Cc1cccc2cc(Cn3nc(-c4cn[nH]c4)c4c(N)ncnc43)n(-c3ccccc3Cl)c(=O)c12 | > 10000 | > 10000 | 100 to 1000 | 
COc1ccccc1-n1c(Cn2nc(I)c3c(N)ncnc32)cc2cccc(C)c2c1=O | > 10000 | > 10000 | 100 to 1000 | 
CC(=O)Nc1nc2cc(-c3nn(Cc4cc5cccc(C)c5c(=O)n4-c4ccccc4)c4ncnc(N)c34)ccc2s1 | > 10000 | > 10000 | 100 to 1000 | 100 to 1000
Cc1cccc2cc(C(C)Nc3ncnc4[nH]cnc34)n(C3CCOCC3)c(=O)c12 (centres undefined) |  |  | 100 to 1000 | < 100
Cc1cccnc1-n1c(Cn2nc(I)c3c(N)ncnc32)cc2cccc(C)c2c1=O | > 10000 |  | 100 to 1000 | 100 to 1000
Cc1cccc2cc(Cn3nc(C#C[C@@H](C)O)c4c(N)ncnc43)n(-c3ccccc3Cl)c(=O)c12 | > 10000 | > 10000 | 100 to 1000 | 
COc1ccccc1-n1c(Cn2nc(C#C[C@@H](C)O)c3c(N)ncnc32)cc2cccc(C)c2c1=O | > 10000 | > 10000 | 100 to 1000 | 
CC(=O)Nc1nc2ccc(-c3nn(Cc4cc5cccc(C)c5c(=O)n4-c4ccccc4)c4ncnc(N)c34)cc2o1 |  |  | 100 to 1000 | 100 to 1000
Cc1cccc2cc(Cn3nc(C=C4CCNC4=O)c4c(N)ncnc43)n(-c3ccccc3F)c(=O)c12 | > 10000 | > 10000 | > 10000 | 
Cc1cccc2cc(Cn3nc(C(F)F)c4c(N)ncnc43)n(-c3ccccc3)c(=O)c12 | > 10000 |  | 100 to 1000 | < 100
Cc1ccccc1-n1c(Cn2nc(I)c3c(N)nccc32)cc2cccc(C)c2c1=O | > 10000 | > 10000 | 100 to 1000 | 
Cc1ccccc1-n1c(Cn2nc(C(N)=O)c3c(N)ncnc32)cc2cccc(C)c2c1=O | > 10000 |  | 100 to 1000 | 100 to 1000
CC(Nc1ncnc2[nH]cnc12)c1cc2ccccc2c(=O)n1-c1ccccc1 (centres undefined) | > 10000 |  | 100 to 1000 | < 100
CCC(Nc1ncnc2[nH]cnc12)c1cc2cccc(C)c2c(=O)n1C1CCC1 (centres undefined) | > 10000 |  | 100 to 1000 | < 100
Cc1ccccc1-n1c(Cn2nc(Cl)c3c(N)ncnc32)cc2cccc(C)c2c1=O | > 10000 |  | 100 to 1000 | 
Cc1ccncc1-n1c(Cn2nc(I)c3c(N)ncnc32)cc2cccc(C)c2c1=O |  | > 10000 | 100 to 1000 | 
Cc1ccccc1-n1c(Cn2nc(-c3cnn(C)c3)c3c(N)ncnc32)cc2cccc(C)c2c1=O | > 10000 | > 10000 | 100 to 1000 | 
Cc1ccccc1-n1c(Cn2nc(-c3cc(O)cc(F)c3)c3c(N)ncnc32)cc2cccc(F)c2c1=O | > 10000 |  | 100 to 1000 | 

More lines, now with the values ahead:

IC50 (PIK3CA (human)) [nM] | IC50 (PIK3CB (Human)) [nM] | IC50 (PIK3CG (human)) [nM] | IC50 (PIK3CD (Human)) [nM] | Compound
> 10000 | > 10000 | 100 to 1000 |  | COc1cc(-c2nn(Cc3cc4cccc(C)c4c(=O)n3-c3ccccc3F)c3ncnc(N)c23)ccc1Cl
> 10000 | > 10000 | 100 to 1000 |  | Cc1ccccc1-n1c(Cn2nc(C#CCO)c3c(N)ncnc32)cc2cccc(C)c2c1=O
> 10000 | > 10000 | 100 to 1000 |  | Cc1cccc2cc(Cn3nc(-c4cn[nH]c4)c4c(N)ncnc43)n(-c3cccc(F)c3)c(=O)c12
 |  | 100 to 1000 | < 100 | Cc1cccc2cc(C(C)Nc3ncnc4[nH]cnc34)n(C(C)C)c(=O)c12 (centres undefined)
> 10000 |  | 100 to 1000 | < 100 | Cc1cccc2cc(Cn3nc(-c4cn[nH]c4)c4c(N)ncnc43)n(-c3ccccc3C(F)(F)F)c(=O)c12
 | > 10000 | 100 to 1000 |  | Cc1cccc2cc(Cn3nc(I)c4c(N)ncnc43)n(-c3ccccc3Cl)c(=O)c12
> 10000 |  | 100 to 1000 | < 100 | CCC(Nc1ncnc2[nH]cnc12)c1cc2cccc(C)c2c(=O)n1-c1ccccc1C (centres undefined)
> 10000 | > 10000 | > 10000 | 100 to 1000 | Cc1ccccc1-n1c(Cn2nc(C=CC(=O)N3CCOCC3)c3c(N)ncnc32)cc2cccc(C)c2c1=O
 | 100 to 1000 | 100 to 1000 |  | Cc1cccc2cc(Cn3nc(-c4cc(O)cc(F)c4)c4c(N)ncnc43)n(C(C)C)c(=O)c12
 | > 10000 | > 10000 |  | Cc1cccc2cc(Cn3nc(-c4cccc(Cl)c4)c4c(N)ncnc43)n(-c3ccccc3F)c(=O)c12
> 10000 |  | 100 to 1000 | 100 to 1000 | Cc1ccccc1-n1c(Cn2nc(-c3ccc(Cl)cc3)c3c(N)ncnc32)cc2cccc(C)c2c1=O
> 10000 | > 10000 | 100 to 1000 |  | Cc1cccnc1-n1c(Cn2nc(-c3cc(O)cc(F)c3)c3c(N)ncnc32)cc2ccccc2c1=O
> 10000 | 100 to 1000 | 100 to 1000 |  | Cc1cccc2cc(Cn3nc(C#C[C@@H](C)O)c4c(N)ncnc43)n(C3CC3)c(=O)c12
 | < 100 | 100 to 1000 | < 100 | Cc1cccc2cc([C@H](C)Nc3nc(F)nc4[nH]cnc34)n(C3CC3)c(=O)c12
> 10000 |  | 100 to 1000 | 100 to 1000 | CNc1ncc(Cl)c(N[C@@H](C)c2cc3cccc(C)c3c(=O)n2-c2ccccc2)n1
> 10000 | > 10000 | 100 to 1000 |  | Cc1cccc2cc(Cn3nc(-c4cccc(O)c4)c4c(N)ncnc43)n(-c3ccccc3F)c(=O)c12
> 10000 | > 10000 | 100 to 1000 |  | C=Cc1nn(Cc2cc3cccc(C)c3c(=O)n2-c2ccccc2C)c2ncnc(N)c12
 |  | 100 to 1000 | 100 to 1000 | Cc1cccc2cc(Cn3nc(-c4ccc(Cl)c(O)c4)c4c(N)ncnc43)n(C3CCCC3)c(=O)c12
 |  | 100 to 1000 | < 100 | Cc1cccc2cc(Cn3nc(-c4cn[nH]c4)c4c(N)ncnc43)n(-c3ccccc3)c(=O)c12
 |  | 100 to 1000 | < 100 | C=Cc1nn(Cc2cc3cccc(C)c3c(=O)n2-c2ccccc2)c2ncnc(N)c12
> 10000 | > 10000 | 100 to 1000 |  | Cc1cccc2cc(Cn3nc(C#CCO)c4c(N)ncnc43)n(-c3ccccc3F)c(=O)c12
> 10000 |  | 100 to 1000 |  | CCc1ccccc1-n1c(Cn2nc(C#C[C@@H](C)O)c3c(N)ncnc32)cc2cccc(C)c2c1=O
> 10000 | > 10000 | 100 to 1000 |  | Cc1ccccc1-n1c(Cn2nc(-c3cnn(CCO)c3)c3c(N)ncnc32)cc2cccc(C)c2c1=O
> 10000 | > 10000 | 100 to 1000 |  | Cc1cccnc1-n1c(Cn2nc(-c3cccc(O)c3)c3c(N)ncnc32)cc2cccc(C)c2c1=O
> 10000 |  | 100 to 1000 | 100 to 1000 | COc1ccc(-c2nn(Cc3cc4cccc(C)c4c(=O)n3-c3ccccc3F)c3ncnc(N)c23)cc1OC
> 10000 | > 10000 | 100 to 1000 |  | Cc1cccc2cc(Cn3nc(-c4cccc(O)c4)c4c(N)ncnc43)n(-c3ccccc3OCCN3CCOCC3)c(=O)c12
